Results: publication PMC8743659, “C1632 suppresses the migration and proliferation of non‐small‐cell lung cancer cells involving LIN28 and FGFR1 pathway” (Journal of Cellular and Molecular Medicine, 2021)

What was measured:
LIN28B = test: Western blot of LIN28B after FGFR1 inhibition; format: cell-based, human; conditions: Ponatinib, A549 and A549R cell lines
Experimental: The total cell protein was extracted and denaturized at 95°C for 10 min. Samples were separated in SDS‐PAGE gel, then transferred to a PVDF membrane. Then this membrane was blocked with 5% non‐fat milk (solved in TBST) for 2.5 h at room temperature. Blots were probed with relevant primary antibodies against FGFR1 (CST), p‐FGFR1 (CST), MAPK (CST), p‐MAPK (CST), FAK (CST), p‐FAK (CST), MMP‐9 (CST), LIN28B (CST), GAPDH (CST), and β‐actin (proteintech) overnight at 4°C, respectively. Then the lanes were detected with HRP‐conjugated secondary antibodies and visualized using WESTAR SUPERNOVA kit (CYANAGEN).

FGFR1 = test: Western blot of FGFR1 signalling in NSCLC cells; format: cell-based, human; conditions: Ponatinib, A549 and A549R cell lines
Experimental: The total cell protein was extracted and denaturized at 95°C for 10 min. Samples were separated in SDS‐PAGE gel, then transferred to a PVDF membrane. […] Blots were probed with relevant primary antibodies against FGFR1 (CST), p‐FGFR1 (CST), MAPK (CST), p‐MAPK (CST), FAK (CST), p‐FAK (CST), MMP‐9 (CST), LIN28B (CST), GAPDH (CST), and β‐actin (proteintech) overnight at 4°C, respectively. Then the lanes were detected with HRP‐conjugated secondary antibodies and visualized using WESTAR SUPERNOVA kit ([…]).

SMILES: Cc1ccc(C(=O)Nc2ccc(CN3CCN(C)CC3)c(C(F)(F)F)c2)cc1C#Cc1cnc2cccnn12 [Ponatinib, reference compound]
- expression of LIN28B (LIN28B): suppressing the expression of LIN28B
- effect on FGFR1 (FGFR1): inhibited FGFR1
